Measured values from article PMC3139667, “A Screen against Leishmania Intracellular Amastigotes: Comparison to a Promastigote Screen and Identification of a Host Cell-Specific Hit” (PLoS Neglected Tropical Diseases, 2011).
Where a name gives a salt, the structure may show the parent alone. Read-outs that look alike come from different tables or passages of the source.

Key:
[1] = test system: L. donovani intracellular amastigotes; assay: Intracellular amastigote high-throughput image-based assay in infected THP-1 macrophages; assay type: cell-based, Leishmania donovani; settings: for GI50: read-out: GI50 Intracellular amastigote
Protocol: (§1) Sterile, black, 96-well, clear bottom plates (Greiner Bio-One) were seeded with exponentially growing THP-1 (5×10^5cells/ml). THP-1 were treated with 0.1 µM phorbol myristate acetate (PMA, Sigma) at 37°C for 48 h to achieve differentiation into adherent, non-dividing macrophages. Maturation of THP-1 cells towards monocyte-macrophage like cells is essential to avoid parasitized cells being overgrown by replicating cells. After activation by PMA, cells were washed and incubated with complete RPMI medium containing stationary phase L. donovani promastigotes at a macrophage/promastigote ratio of 1/15. After 4 h incubation at 37°C, non-internalized promastigotes were removed by 2–3 successive washes with RPMI containing 5% FBS and 5% horse serum. Test compounds (10 µM), positive control (2 µM amphotericin B) or negative control (1% DMSO) were then added to the cultures using a Biomek FXp liquid handler (Beckman Coulter). Cultures were incubated at 37°C for 72 h. Cells were then washed with phosphate-buffered saline (PBS), fixed for 30 minutes with 4% formaldehyde, rinsed again with PBS, stained for 2 h with 4′,6′-diamidino-2-phenylindole (DAPI 300 nM) and finally washed with PBS. […] Images were acquired with an INCell Analyzer 1000 automated epi-fluorescent microscope (G.E. Healthcare). The excitation and emission filters used to detect DAPI were 350/50 nm and 460/40 nm respectively. Eight image fields were acquired per well with a 20X objective. The proprietary INCell Developer Toolbox 1.7 software was used for image analysis. Segmentation parameters were set to identify host nuclei with a minimum area of 250 µm^2 and parasite kinetoplast with an average area of 1 µm^2. The intensity of parasite nucleus was too low to be detected with a 20X objective. A border, representing the boundary of the cell, was drawn around the nucleus (total area between 700 and 2000 µm^2). Only parasites found within this area were included in the calculation to eliminate extracellular parasites. False positive parasite detection in the nucleus was also excluded from the calculation. Host cell nuclei and parasite kinetoplasts were counted and the ratio of parasites DNA to host nuclei was selected as the measurement output. Percentage inhibition of parasite growth was calculated as [1-(P/hcx-P/hc^+)/(P/hc^−-P/hc^+)]*100 where P/hcx, P/hc^+ and P/hc^− are parasite per host cell ratio for every well, positive control (amphotericin B) and negative control (DMSO) respectively. Calculation of Z' factor and GI50 curve fitting were carried out as described above.

[2] = test system: L. donovani axenic amastigotes; assay: Dose response study against axenic amastigotes (CellTiter-Glo); assay type: cell-based, Leishmania donovani; settings: read-out: GI50 Axenic amastigote
Protocol: L. donovani axenic amastigotes (5×10^5 cells/ml in axenic amastigote media) were dispensed in sterile 96-well flat white opaque assay plates (Greiner Bio-One) using a WellMate multichannel dispenser (Matrix). […] 1% DMSO and amphotericin B (2 µM, 1% DMSO final concentration) were added as negative and positive controls respectively. Axenic amastigotes were incubated with the compounds for 72 h at 37°C with 5% CO2. Parasite viability was then measured using CellTiter-Glo as described above.

THP-1 = assay: Host cell toxicity: THP-1 host nuclei counts in the image-based assay; settings: for GI50: read-out: GI50 THP-1; for Selectivity: ratio between parasite GI50 and THP-1 GI50
Protocol: as §1

[3] = test system: L. donovani promastigotes; assay: Promastigote high-throughput ATP-bioluminescence assay; assay type: cell-based, Leishmania donovani; settings: read-out: GI50 Promastigote
Protocol: L. donovani promastigotes from an exponentially growing culture were diluted to 10^6/ml in RPMI containing 10% FBS and 10% BHT. The diluted culture (99 µl/well) was dispensed in sterile 96-well flat white opaque assay plates (Greiner Bio-One) using a WellMate multichannel dispenser (Matrix). 1 µl of 1 mM test compound dissolved in DMSO was added to the plates for a final concentration of 10 µM compound and 1% DMSO. Amphotericin B was added as a positive control (final concentration 2 µM, 1% DMSO) and as a negative control, 1 µl DMSO was added (1% final concentration). Compounds and controls were added to the assay plate with the robotic dispenser Biomek FXp liquid handler (Beckman Coulter). Promastigotes were incubated with the compounds for 72 h at 27°C. The parasites were then lysed by adding 50 µl of CellTiter-Glo (Promega) and placed on an orbital shaker for 5 min at room temperature. After lysis, the resulting ATP-bioluminescence was measured using the Analyst HT plate reader (Molecular Devices). Percentage inhibition of parasite growth was calculated for each well as [1-(RLUx-RLU^+)/(RLU^--RLU^+)]*100 where RLUx, RLU^+ and RLU^- are respectively the Relative Light Units for each well, positive (amphotericin B) and negative (DMSO) controls. A screening window coefficient, denoted Z' factor, was used to evaluate the performance of the assay. The Z' factor, calculated as 1-(3σc++3σc−)/(µc+−µc−) where σc+, σc−, µc+ and µc− are respectively the standard deviation and mean values of positive and negative controls, is reflective of the assay signal dynamic range and the data variation associated with signal measurement. […] GI50 curve fitting was carried out using GraphPad Prism 4 Software (GraphPad Software Inc., San Diego, CA).

[4] = Leishmania donovani, THP-1, 72 h, L. donovani in THP-1, 72 h, parasites per host cell
[5] = ratio between promastigote GI50 and intracellular amastigote GI50, >2 more active against intracellular amastigote, <0.4 more active against promastigotes
[6] = Leishmania donovani, 72 h at 37°C, CellTiter-Glo
[7] = Leishmania donovani, 72 h at 27°C, CellTiter-Glo
[8] = L. donovani in THP-1, 72 h, parasites per host cell
[9] = PMA-differentiated infected THP-1, 72 h, host nuclei count

Compound	GI50 [1, 4]	Specificity [1, 5]	GI50 [2, 6]	GI50 (THP-1; Homo sapiens, THP-1, 72 h)	Selectivity (THP-1)	GI50 [3, 7]	further results
CCCCCC[C@H]1C(=O)O[C@H](C)[C@H](NC(=O)c2cccc(NC=O)c2O)C(=O)O[C@@H](C)[C@@H]1OC(=O)CC(C)C [Antimycin A]	2.15 µM	0.05	10 nM	> 50 µM	500	0.1 µM	
Nc1c2ccccc2nc2ccccc12 [Aminacrine]	1.9 µM	4.71	> 16500 nM	13 µM	6.82	8.96 µM	
COC(=O)C[C@](O)(CCC(C)(C)O)C(=O)O[C@@H]1C(OC)=C[C@]23CCCN2CCc2cc4c(cc2[C@H]13)OCO4 [Harringtonin]					0.02		Specificity [1]: 3.39; GI50 [1, 8]: 4.89 µM; GI50 ([2]; 72 h at 37°C, CellTiter-Glo): 10600 nM; GI50 (THP-1; [9]): 0.1 µM; GI50 ([3]; 72 h at 27°C, CellTiter-Glo): 16.6 µM
CC[C@@H](C(=O)[C@@H](C)[C@@H](O)[C@H](C)[C@@H]1O[C@@H]([C@@H](CC)C(=O)O)CC[C@@H]1C)[C@H]1O[C@]2(C=C[C@@H](O)[C@]3(CC[C@@](C)([C@H]4CC[C@](O)(CC)[C@H](C)O4)O3)O2)[C@H](C)C[C@@H]1C [Salinomycin]	0.92 µM		60 nM	16.1 µM	17.30	2.71 µM	Specificity [1]: 2.92
CC[C@H]1CN2CCc3cc(OC)c(OC)cc3[C@@H]2C[C@@H]1C[C@H]1NCCc2cc(OC)c(OC)cc21 [Emetine]	0.082 µM		1620 nM	1.28 µM		0.03 µM	
CCCCCCCCCCCCCCCC[n+]1ccccc1 [Cetylpyridinium chloride]							Specificity [1]: 8.05
Clc1ccc(COC(Cn2ccnc2)c2ccc(Cl)cc2Cl)c(Cl)c1 (stereo not shown) [Miconazole]	15.4 µM	0.48	4730 nM	> 16.5 µM	1.07	7.48 µM	
C[C@@H]1C[C@@H]([C@H](O)CC2CC(=O)NC(=O)C2)C(=O)[C@@H](C)C1 [Cycloheximide]		2.55		21 µM	18.13		GI50 ([1]; Leishmania donovani, THP-1, 72 h): 1.15 µM; GI50 ([2]; Leishmania donovani, 72 h): 390 nM; GI50 ([3]; Leishmania donovani, 72 h): 2.95 µM
CC(=O)OC[C@H]1O[C@@H]([S-])[C@H](OC(C)=O)[C@@H](OC(C)=O)[C@@H]1OC(C)=O.CCP(CC)CC.[Au+] [Auranofin]		0.51			1.88		GI50 [1, 8]: 21.8 µM; GI50 ([2]; 72 h at 37°C, CellTiter-Glo): > 50000 nM; GI50 (THP-1; [9]): 20.9 µM; GI50 ([3]; 72 h at 27°C, CellTiter-Glo): 11.1 µM
CN(C)C(=S)SSC(=S)N(C)C [Thiram]	10.4 µM	0.44	5420 nM	1.58 µM	0.34	4.62 µM	
COc1cc2nc(N3CCN(C(=O)C4COc5ccccc5O4)CC3)nc(N)c2cc1OC (stereo not shown) [Doxazocin]		1.69			3.32		GI50 [1, 8]: 5 µM; GI50 ([2]; 72 h at 37°C, CellTiter-Glo): > 16500 nM; GI50 (THP-1; [9]): > 16.5 µM; GI50 ([3]; 72 h at 27°C, CellTiter-Glo): 8.45 µM
CN(C)C(=O)C(CCN1CCC(O)(c2ccc(Cl)cc2)CC1)(c1ccccc1)c1ccccc1 [Loperamide Hydrochloride]			> 50000 nM			17.3 µM	
N=C(N)c1ccc(OCCCCCOc2ccc(C(=N)N)cc2)cc1 [Pentamidine Isethionate]	9.55 µM	0.17	1640 nM	> 50 µM	29.49	1.69 µM	Primary screen against intracellular amastigotes, hit selection ([1]; 10 µM, duplicates, hit = 60% parasite growth inhibition and not more than 20% reduction in THP-1 numbers): active
COCc1c(C(C)C)nc(C(C)C)c(/C=C/[C@@H](O)C[C@@H](O)CC(=O)O)c1-c1ccc(F)cc1 [Cerivastatin]	> 50 µM	0.22	20 nM	7.15 µM	0.66	10.8 µM	
C[CH2][Hg][S]c1ccccc1C(=O)[O-].[Na+] [Thimerosal]					26.18		GI50 ([2]; 72 h at 37°C, CellTiter-Glo): 1500 nM; GI50 (THP-1; [9]): 12.8 µM; GI50 ([3]; 72 h at 27°C, CellTiter-Glo): 0.49 µM
C[C@@H]1CC[C@@]2(OC1)O[C@H]1[C@@H](O)[C@H]3[C@@H]4CC[C@H]5C[C@@H](O[C@@H]6O[C@H](CO)[C@H](O[C@@H]7O[C@H](CO)[C@@H](O)[C@H](O[C@@H]8OC[C@@H](O)[C@H](O)[C@H]8O)[C@H]7O[C@@H]7O[C@H](CO)[C@H](O)[C@H](O[C@@H]8O[C@H](CO)[C@@H](O)[C@H](O)[C@H]8O)[C@H]7O)[C@H](O)[C@H]6O)[C@H](O)C[C@]5(C)[C@H]4CC[C@]3(C)[C@H]1[C@@H]2C [Digitonin]			13800 nM	13.5 µM	3.075	4.38 µM	
O=C(Nc1ccc(Cl)c(Cl)c1)c1cc(Cl)cc(Cl)c1O [3,3′,4′,5-tetrachlorosalicylanilide]			1380 nM	0.32 µM	0.22	1.45 µM	
Clc1ccc(CO/N=C(\Cn2ccnc2)c2ccc(Cl)cc2Cl)c(Cl)c1 [Oxiconazole]		0.40					
CC(C)(C)CC(C)(C)c1ccc(OCCOCC[N+](C)(C)Cc2ccccc2)cc1.[Cl-] [Benzetonium chloride]		1.13					GI50 [1, 8]: 10 µM; GI50 ([2]; 72 h at 37°C, CellTiter-Glo): 10700 nM; GI50 ([3]; 72 h at 27°C, CellTiter-Glo): 11.3 µM
COc1c(Cl)cc2c(c1OC)N(C)[C@@H]1N3C(=O)[C@@]4(C)SS[C@@]3(C(=O)N4C)[C@H](O)[C@]21O [Sporidesmin A]					0.02		GI50 ([2]; 72 h at 37°C, CellTiter-Glo): 1660 nM; GI50 (THP-1; [9]): 0.02 µM; GI50 ([3]; 72 h at 27°C, CellTiter-Glo): 1.18 µM
Gramicidin					12.19		GI50 ([2]; 72 h at 37°C, CellTiter-Glo): 5760 nM; GI50 (THP-1; [9]): 8.38 µM; GI50 ([3]; 72 h at 27°C, CellTiter-Glo): 0.68 µM
CC(=O)[C@]1(O)Cc2c(O)c3c(c(O)c2[C@@H](O[C@H]2C[C@H](N)[C@H](O)[C@H](C)O2)C1)C(=O)c1ccccc1C3=O [Idarubicin]			1780 nM	1.89 µM	0.40	4.65 µM	
CCCCN(CCCC)C(=S)[S-].CCCCN(CCCC)C(=S)[S-].[Zn+2] [Zinc Dibutyldithiocarbamate]					5.89		Specificity [1]: 0.17
Cc1c(-c2ccc(O)cc2)n(Cc2ccc(OCCN3CCCCCC3)cc2)c2ccc(O)cc12 [Bazedoxifene]			> 16500 nM			6.52 µM	
CC(C)(C)c1ccc(C(O)CCCN2CCC(C(O)(c3ccccc3)c3ccccc3)CC2)cc1 (stereo not shown) [Terfenadine]			610 nM			11.9 µM	
